Assay results published in publication PMC8398255, “Synthesis of 3,5-Bis(trifluoromethyl)phenyl-Substituted Pyrazole Derivatives as Potent Growth Inhibitors of Drug-Resistant Bacteria” (Molecules, 2021).
Values after ≈ are worked out from the molar mass of the structure shown.

What was measured:
Assay type in all cases: cell-based
[1] = tested on: Bacillus subtilis ATCC 6623 (Bs); experiment: MIC, microdilution (CLSI); details: ATCC6623; Bs, Bacillus subtilis ATCC 6623; n = 3; read-out: MIC
Method: (§1) Compounds were dissolved in dimethyl sulfoxide (DMSO) to achieve a starting concentration of 32 µg/mL as described by us previously. Compounds were further diluted two-fold across the 96-well honeycomb plate columns in cation adjusted Mueller Hinton broth (CAMHB), and bacterial culture was added. Plates were incubated for 18–20 h at 35 ℃ before determining the minimum concentrations at which wells had no visible turbidity to the naked eye. The MIC values were determined from at least a duplicate result obtained from three independent experiments using fresh bacterial cultures on different days.

[2] = tested on: S. aureus ATCC 33592 (Sa92); experiment: MIC, microdilution (CLSI); details: Staphylococcus aureus, ATCC33592; Sa92, methicillin-resistant S. aureus ATCC 33592; n = 3; read-out: MIC
Method: as §1

[3] = tested on: S. epidermidis ATCC 700296 (Se); experiment: MIC, microdilution (CLSI); details: Staphylococcus epidermidis, ATCC700296; Se, S. epidermidis ATCC 700296; n = 3; read-out: MIC
Method: as §1

[4] = tested on: E. faecium ATCC 700221 (Ef21); experiment: MIC, microdilution (CLSI); details: Enterococcus faecium, ATCC 700221 / VRE; Ef21, vancomycin-resistant (VRE) E. faecium ATCC 700221; n = 3; read-out: MIC
Method: as §1

[5] = tested on: S. aureus ATCC 33591 (Sa91); experiment: MIC, microdilution (CLSI); details: Staphylococcus aureus, ATCC33591; Sa91, methicillin-resistant S. aureus ATCC 33591; n = 3; read-out: MIC
Method: as §1

[6] = tested on: E. faecalis ATCC 51299 (Ef99); experiment: MIC, microdilution (CLSI); details: Enterococcus faecalis, ATCC 51299 / VRE; Ef99, vancomycin-resistant (VRE) E. faecalis ATCC 51299; n = 3; read-out: MIC
Method: as §1

[7] = tested on: S. aureus ATCC 25923 (Sa23); experiment: MIC, microdilution (CLSI); details: Staphylococcus aureus, ATCC25923; Sa23, antibiotic susceptible S. aureus ATCC 25923; n = 3; read-out: MIC
Method: as §1

[8] = tested on: S. aureus ATCC 700699 (Sa99); experiment: MIC, microdilution (CLSI); details: Staphylococcus aureus, ATCC700699; Sa99, methicillin-resistant S. aureus ATCC 700699; n = 3; read-out: MIC
Method: as §1

[9] = tested on: E. faecalis ATCC 29212 (Ef12); experiment: MIC, microdilution (CLSI); details: Enterococcus faecalis, ATCC29212; Ef12, antibiotic susceptible E. faecalis ATCC 29212; n = 3; read-out: MIC
Method: as §1

[10] = tested on: S. aureus BAA-2312 (Sa12); experiment: MIC, microdilution (CLSI); details: Staphylococcus aureus, BAA2312; Sa12, methicillin-resistant S. aureus BAA-2312; n = 3; read-out: MIC
Method: as §1

Gram-positive bacteria = experiment: MIC across the tested strains; details: for MIC: across the tested strains
Method: as §1

Row | SMILES | MIC [1] [µg/mL] | MIC [2] [µg/mL] | MIC [3] [µg/mL] | MIC [4] [µg/mL] | MIC [5] [µg/mL] | MIC [6] [µg/mL] | MIC [7] [µg/mL] | MIC [8] [µg/mL] | MIC [9] [µg/mL] | MIC [10] [µg/mL] | MIC (Gram-positive bacteria) [µg/mL] | antibacterial activity (Gram-positive bacteria; tested bacteria)
1 | O=C(O)c1ccc(-n2cc(CNc3ccccc3)c(-c3cc(C(F)(F)F)cc(C(F)(F)F)c3)n2)cc1 [Compound 1, 4-[4-(Anilinomethyl)-3-[3,5-bis(trifluoromethyl)phenyl]pyrazol-1-yl] benzoic acid] | 2 (≈ 3.96 µM) | 4 (≈ 7.91 µM) | 8 (≈ 15.8 µM) | 4 (≈ 7.91 µM) | 4 (≈ 7.91 µM) | 4 (≈ 7.91 µM) | 4 (≈ 7.91 µM) | 4 (≈ 7.91 µM) | 8 (≈ 15.8 µM) | 2 (≈ 3.96 µM) | ≥ 2 | 
2 | CC(C)(C)c1ccc(NCc2cn(-c3ccc(C(=O)O)cc3)nc2-c2cc(C(F)(F)F)cc(C(F)(F)F)c2)cc1 [Compound 3, 4-[3-[3,5-Bis(trifluoromethyl)phenyl]-4-[(4-tert-butylanilino)methyl]pyrazol-1-yl] benzoic acid] | 2 (≈ 3.56 µM) | 2 (≈ 3.56 µM) | 1 (≈ 1.78 µM) | 2 (≈ 3.56 µM) | 1 (≈ 1.78 µM) | 0.5 (≈ 0.89 µM) | 1 (≈ 1.78 µM) | 2 (≈ 3.56 µM) | 1 (≈ 1.78 µM) | 1 (≈ 1.78 µM) |  | 
3 | COc1ccc(NCc2cn(-c3ccc(C(=O)O)cc3)nc2-c2cc(C(F)(F)F)cc(C(F)(F)F)c2)cc1 [Compound 4, 4-[3-[3,5-Bis(trifluoromethyl)phenyl]-4-[(4-methoxyanilino)methyl]pyrazol-1-yl] benzoic acid] | 4 (≈ 7.47 µM) | 8 (≈ 14.9 µM) | 16 (≈ 29.9 µM) | 8 (≈ 14.9 µM) | 8 (≈ 14.9 µM) | 16 (≈ 29.9 µM) | 8 (≈ 14.9 µM) | 8 (≈ 14.9 µM) | 16 (≈ 29.9 µM) | 4 (≈ 7.47 µM) |  | 
4 | CSc1ccc(NCc2cn(-c3ccc(C(=O)O)cc3)nc2-c2cc(C(F)(F)F)cc(C(F)(F)F)c2)cc1 [Compound 6, 4-[3-[3,5-Bis(trifluoromethyl)phenyl]-4-[(4-methylsulfanylanilino)methyl]pyrazol-1-yl] benzoic acid] | 1 (≈ 1.81 µM) | 2 (≈ 3.63 µM) | 4 (≈ 7.25 µM) | 2 (≈ 3.63 µM) | 2 (≈ 3.63 µM) | 2 (≈ 3.63 µM) | 2 (≈ 3.63 µM) | 4 (≈ 7.25 µM) | 4 (≈ 7.25 µM) | 2 (≈ 3.63 µM) | 1 to 4 (≈ 1.81 to 7.25 µM) | 
5 | O=C(O)c1ccc(-n2cc(CNc3cccc(F)c3)c(-c3cc(C(F)(F)F)cc(C(F)(F)F)c3)n2)cc1 [Compound 7, 4-[3-[3,5-Bis(trifluoromethyl)phenyl]-4-[(3-fluoroanilino)methyl]pyrazol-1-yl] benzoic acid] | 2 (≈ 3.82 µM) | 2 (≈ 3.82 µM) | 4 (≈ 7.64 µM) | 4 (≈ 7.64 µM) | 4 (≈ 7.64 µM) | 4 (≈ 7.64 µM) | 4 (≈ 7.64 µM) | 4 (≈ 7.64 µM) | 8 (≈ 15.3 µM) | 2 (≈ 3.82 µM) |  | 
6 | O=C(O)c1ccc(-n2cc(CNc3ccc(F)cc3)c(-c3cc(C(F)(F)F)cc(C(F)(F)F)c3)n2)cc1 [Compound 8, 4-[3-[3,5-Bis(trifluoromethyl)phenyl]-4-[(4-fluoroanilino)methyl]pyrazol-1-yl] benzoic acid] | 1 (≈ 1.91 µM) | 2 (≈ 3.82 µM) | 4 (≈ 7.64 µM) | 4 (≈ 7.64 µM) | 2 (≈ 3.82 µM) | 4 (≈ 7.64 µM) | 2 (≈ 3.82 µM) | 4 (≈ 7.64 µM) | 4 (≈ 7.64 µM) | 2 (≈ 3.82 µM) |  | 
7 | O=C(O)c1ccc(-n2cc(CNc3ccc(Cl)cc3)c(-c3cc(C(F)(F)F)cc(C(F)(F)F)c3)n2)cc1 [Compound 9, 4-[3-[3,5-Bis(trifluoromethyl)phenyl]-4-[(4-chloroanilino)methyl]pyrazol-1-yl] benzoic acid] | 1 (≈ 1.85 µM) | 1 (≈ 1.85 µM) | 2 (≈ 3.7 µM) | 2 (≈ 3.7 µM) | 2 (≈ 3.7 µM) | 2 (≈ 3.7 µM) | 2 (≈ 3.7 µM) | 2 (≈ 3.7 µM) | 2 (≈ 3.7 µM) | 1 (≈ 1.85 µM) |  | 
8 | O=C(O)c1ccc(-n2cc(CNc3cccc(Br)c3)c(-c3cc(C(F)(F)F)cc(C(F)(F)F)c3)n2)cc1 [Compound 10, 4-[3-[3,5-Bis(trifluoromethyl)phenyl]-4-[(3-bromoanilino)methyl]pyrazol-1-yl] benzoic acid] | 2 (≈ 3.42 µM) | 2 (≈ 3.42 µM) | 4 (≈ 6.85 µM) | 4 (≈ 6.85 µM) | 2 (≈ 3.42 µM) | 2 (≈ 3.42 µM) | 2 (≈ 3.42 µM) | 2 (≈ 3.42 µM) | 4 (≈ 6.85 µM) | 2 (≈ 3.42 µM) |  | 
9 | O=C(O)c1ccc(-n2cc(CNc3cccc(C(=O)O)c3)c(-c3cc(C(F)(F)F)cc(C(F)(F)F)c3)n2)cc1 [Compound 12, 3-[[3-[3,5-Bis(trifluoromethyl)phenyl]-1-(4-carboxyphenyl)pyrazol-4-yl]methylamino] benzoic acid] | > 32 | > 32 | > 32 | > 32 | > 32 | > 32 | > 32 | > 32 | > 32 | > 32 |  | eliminated the activity
10 | O=C(O)c1ccc(-n2cc(CNc3ccc(F)c(Cl)c3)c(-c3cc(C(F)(F)F)cc(C(F)(F)F)c3)n2)cc1 [Compound 18, 4-[3-[3,5-Bis(trifluoromethyl)phenyl]-4-[(3-chloro-4-fluoro-anilino)methyl]pyrazol-1-yl] benzoic acid] | 1 (≈ 1.79 µM) | 1 (≈ 1.79 µM) | 2 (≈ 3.59 µM) | 1 (≈ 1.79 µM) | 1 (≈ 1.79 µM) | 2 (≈ 3.59 µM) | 2 (≈ 3.59 µM) | 2 (≈ 3.59 µM) | 2 (≈ 3.59 µM) | 1 (≈ 1.79 µM) |  | 
11 | O=C(O)c1ccc(-n2cc(CNc3ccc(Br)c(C(F)(F)F)c3)c(-c3cc(C(F)(F)F)cc(C(F)(F)F)c3)n2)cc1 [Compound 23, 4-[3-[3,5-Bis(trifluoromethyl)phenyl]-4-[[4-bromo-3-(trifluoromethyl)anilino]methyl]pyrazol-1-yl] benzoic acid] | 1 (≈ 1.53 µM) | 1 (≈ 1.53 µM) | 4 (≈ 6.13 µM) | 2 (≈ 3.07 µM) | 1 (≈ 1.53 µM) | 2 (≈ 3.07 µM) | 1 (≈ 1.53 µM) | 2 (≈ 3.07 µM) | 2 (≈ 3.07 µM) | 2 (≈ 3.07 µM) |  | 
12 | O=C(O)c1ccc(-n2cc(CNc3ccc(F)c(F)c3F)c(-c3cc(C(F)(F)F)cc(C(F)(F)F)c3)n2)cc1 [Compound 24, 4-[3-[3,5-Bis(trifluoromethyl)phenyl]-4-[(2,3,4-trifluoroanilino)methyl]pyrazol-1-yl] benzoic acid] | 1 (≈ 1.79 µM) | 1 (≈ 1.79 µM) | 4 (≈ 7.15 µM) | 1 (≈ 1.79 µM) | 1 (≈ 1.79 µM) | 2 (≈ 3.58 µM) | 2 (≈ 3.58 µM) | 2 (≈ 3.58 µM) | 2 (≈ 3.58 µM) | 1 (≈ 1.79 µM) |  | 
13 | O=C(O)c1ccc(-n2cc(CNc3cc(F)c(F)c(F)c3)c(-c3cc(C(F)(F)F)cc(C(F)(F)F)c3)n2)cc1 [Compound 25, 4-[3-[3,5-Bis(trifluoromethyl)phenyl]-4-[(3,4,5-trifluoroanilino)methyl]pyrazol-1-yl] benzoic acid] | 1 (≈ 1.79 µM) | 2 (≈ 3.58 µM) | 4 (≈ 7.15 µM) | 2 (≈ 3.58 µM) | 2 (≈ 3.58 µM) | 4 (≈ 7.15 µM) | 4 (≈ 7.15 µM) | 4 (≈ 7.15 µM) | 4 (≈ 7.15 µM) | 2 (≈ 3.58 µM) |  | 
14 | O=C(O)c1ccc(-n2cc(CNc3ccc(F)c(Cl)c3F)c(-c3cc(C(F)(F)F)cc(C(F)(F)F)c3)n2)cc1 [Compound 27, 4-[3-[3,5-Bis(trifluoromethyl)phenyl]-4-[(3-chloro-2,4-difluoro-anilino)methyl]pyraz-ol-1-yl] benzoic acid] | 1 (≈ 1.74 µM) | 1 (≈ 1.74 µM) | 2 (≈ 3.47 µM) | 1 (≈ 1.74 µM) | 1 (≈ 1.74 µM) | 2 (≈ 3.47 µM) | 1 (≈ 1.74 µM) | 2 (≈ 3.47 µM) | 2 (≈ 3.47 µM) | 1 (≈ 1.74 µM) |  | 
15 | O=C(O)c1ccc(-n2cc(CNc3cc(Cl)c(F)c(Cl)c3F)c(-c3cc(C(F)(F)F)cc(C(F)(F)F)c3)n2)cc1 [Compound 30, 4-[3-[3,5-Bis(trifluoromethyl)phenyl]-4-[(3,5-dichloro-2,4-difluoro-anilino)methyl]pyrazol-1-yl] benzoic acid] | 1 (≈ 1.64 µM) | 1 (≈ 1.64 µM) | 2 (≈ 3.28 µM) | 1 (≈ 1.64 µM) | 1 (≈ 1.64 µM) | 2 (≈ 3.28 µM) | 1 (≈ 1.64 µM) | 2 (≈ 3.28 µM) | 2 (≈ 3.28 µM) | 2 (≈ 3.28 µM) |  | 
